Reference: the NIST ThermoML archive (doi:10.1021/je400512u)
Numbers after ± are expanded uncertainties.

Experiment: xn = mol fraction of the nth substance listed
Settings: 101 kPa, Liquid; for speed of sound: Pulse-echo method; for mass density: Vibrating tube method; for viscosity: Concentric cylinders viscometry

CCCCCCCO [heptan-1-ol] + C1COCCO1
Settings | mass density, 318.15 K [kg/m3] | mass density, 323.15 K [kg/m3] | speed of sound, 318.15 K [m/s] | speed of sound, 323.15 K [m/s] | viscosity, 323.15 K [mPa·s]
x1 = 0.0505 | 986.663 ± 0.27 | 981.158 ± 0.27 | – | 1233.5 ± 1.2 | 0.827 ± 0.029
x1 = 0.1 | 970.046 ± 0.26 | 964.707 ± 0.26 | – | 1230.6 ± 1.2 | 0.842 ± 0.03
x1 = 0.1501 | 955.144 ± 0.26 | 949.953 ± 0.26 | – | 1228.1 ± 1.2 | 0.867 ± 0.03
x1 = 0.2 | 940.982 ± 0.26 | 935.93 ± 0.26 | – | 1226.2 ± 1.2 | 0.893 ± 0.031
x1 = 0.25 | 927.545 ± 0.25 | 922.628 ± 0.25 | – | 1224.8 ± 1.2 | 0.928 ± 0.032
x1 = 0.2997 | 915.295 ± 0.25 | 910.503 ± 0.25 | – | 1224 ± 1.2 | 0.971 ± 0.034
x1 = 0.3502 | 904.009 ± 0.25 | 899.329 ± 0.25 | – | 1223.9 ± 1.2 | 1.021 ± 0.036
x1 = 0.4001 | 893.497 ± 0.24 | 888.925 ± 0.24 | – | 1223.7 ± 1.2 | 1.073 ± 0.037
x1 = 0.4498 | 883.572 ± 0.24 | 879.103 ± 0.24 | – | 1224.1 ± 1.2 | 1.136 ± 0.04
x1 = 0.4998 | 874.304 ± 0.24 | 869.929 ± 0.24 | – | 1224.9 ± 1.2 | 1.213 ± 0.042
x1 = 0.55 | 865.728 ± 0.24 | 861.446 ± 0.24 | 1243 ± 1.2 | 1225.7 ± 1.2 | 1.29 ± 0.045
x1 = 0.6004 | 857.642 ± 0.24 | 853.441 ± 0.24 | 1244.1 ± 1.2 | 1227 ± 1.2 | 1.383 ± 0.048
x1 = 0.6501 | 849.902 ± 0.24 | 845.785 ± 0.24 | 1245.5 ± 1.2 | 1228.6 ± 1.2 | 1.486 ± 0.052
x1 = 0.7002 | 842.622 ± 0.24 | 838.579 ± 0.24 | 1247 ± 1.2 | 1230.3 ± 1.2 | 1.604 ± 0.056
x1 = 0.7493 | 835.561 ± 0.24 | 831.593 ± 0.24 | 1248.9 ± 1.2 | 1232.4 ± 1.2 | 1.73 ± 0.06
x1 = 0.7999 | 828.821 ± 0.24 | 824.83 ± 0.24 | 1250.6 ± 1.2 | 1234.3 ± 1.2 | 1.883 ± 0.065
x1 = 0.85 | 822.668 ± 0.24 | 818.738 ± 0.24 | 1253.3 ± 1.2 | 1236.9 ± 1.2 | 2.053 ± 0.071
x1 = 0.8998 | 816.551 ± 0.24 | 812.671 ± 0.24 | 1255.8 ± 1.2 | 1239.1 ± 1.2 | 2.258 ± 0.078
x1 = 0.9498 | 810.743 ± 0.24 | 807.031 ± 0.24 | 1258.4 ± 1.2 | 1241.8 ± 1.2 | 2.489 ± 0.086
x1 = 1 | 805.383 ± 0.24 | 801.731 ± 0.24 | 1261.1 ± 1.2 | 1245.1 ± 1.2 | 2.777 ± 0.096
